Results from ChEMBL document CHEMBL3870356, “Investigation of a Bicyclo[1.1.1]pentane as a Phenyl Replacement within an LpPLA2 Inhibitor” (ACS Med Chem Lett, 2017).
Converted amounts (≈) assume the structure as drawn.

How the values were obtained:
[1] = Kinetic solubility of the compound by chemiluminescent nitrogen detection assay
[2] = Thermodynamic solubility of the compound in fasted state simulated intestinal fluid; format: ADME; details: read-out: Therm_solubility
[3] = Clearance in human liver microsomes; format: ADME
[4] = Lipophilicity, logD of the compound at pH 7.4 by chromatography; format: physicochemical; details: buffer
[5] = molecular target: T1, Platelet-activating factor acetylhydrolase (Homo sapiens, UniProt Q13093); assay: Inhibition of human recombinant LpPLA2
T1 sequence (Q13093 whole entry): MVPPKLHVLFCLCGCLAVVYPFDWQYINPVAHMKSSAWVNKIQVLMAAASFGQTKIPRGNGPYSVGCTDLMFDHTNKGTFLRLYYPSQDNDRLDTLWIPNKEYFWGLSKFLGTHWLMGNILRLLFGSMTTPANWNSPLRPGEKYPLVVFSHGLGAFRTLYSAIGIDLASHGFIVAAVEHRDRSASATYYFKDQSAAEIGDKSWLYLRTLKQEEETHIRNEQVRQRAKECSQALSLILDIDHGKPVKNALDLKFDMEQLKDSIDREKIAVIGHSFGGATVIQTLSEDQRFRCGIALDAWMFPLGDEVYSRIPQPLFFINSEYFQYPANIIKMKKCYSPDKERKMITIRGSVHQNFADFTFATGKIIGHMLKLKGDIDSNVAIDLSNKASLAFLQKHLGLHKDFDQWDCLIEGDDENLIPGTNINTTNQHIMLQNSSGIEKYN

[6] = Permeability of the compound at pH 7.4 by PAMPA; format: ADME; details: read-out: permeability

Row | solubility kinetic [1] [µM] | solubility thermodynamic [2] [µg/mL] | CLH [3] [mL/min/g] | chromatographic logD [4] | IC50 [5] [nM] | Papp [6] [×10⁻⁶ cm/s] | SMILES
1 | 32 (≈ 23.2 µg/mL) | 635 (≈ 875 µM) | 0.76 | 7.06 | – | – | COCCN1CCC(N(CC23CC(c4ccc(C(F)(F)F)cc4)(C2)C3)C(=O)Cn2c(SCc3cccc(F)c3F)cc(=O)c3ccccc32)CC1
2 | 74 (≈ 48.6 µg/mL) | > 1000 | 1.22 | 7 | 0.398 | 70.5 | CCN(CC)CCN(CC12CC(c3ccc(C(F)(F)F)cc3)(C1)C2)C(=O)Cn1c(SCc2ccc(F)cc2)nc(=O)c2c1CCC2
3 | 8 (≈ 5.33 µg/mL) | 399 (≈ 598 µM) | – | – | – | – | CCN(CC)CCN(Cc1ccc(-c2ccc(C(F)(F)F)cc2)cc1)C(=O)Cn1c(SCc2ccc(F)cc2)nc(=O)c2c1CCC2 [DARAPLADIB]
4 | < 1 | 203 (≈ 276 µM) | – | 6.74 | – | – | COCCN1CCC(N(Cc2ccc(-c3ccc(C(F)(F)F)cc3)cc2)C(=O)Cn2c(SCc3cccc(F)c3F)cc(=O)c3ccccc32)CC1 [RILAPLADIB]
